Measured values: article PMC8617627, “Novel DYRK1A Inhibitor Rescues Learning and Memory Deficits in a Mouse Model of Down Syndrome” (Pharmaceuticals, 2021)
Several values for one entry are separate records, joined by “and”; a condition that tells them apart may be missing. Equal values may be shown once. Read-outs that look alike come from different tables or passages of the source.

Tests used:
[1] = Steady state tissue levels after administration in animal food; assay type: in vivo, mouse
Source text: The highest dose provided a continuous concentration of 1.25 μmol/g both in the liver and in the brain and was used in fear conditioning experiments.
Six control euploid mice of the same genetic background as the Ts65Dn mice were used to perform this analysis; two mice per dose and three doses tested.
Prior to contextual fear conditioning experiments, all mice were exposed for three-days to either food mixture alone or food mixture with added PST-001. In addition, the mice continued to consume these same food preparations during the two days necessary to perform the behavioral testing. […] Comparisons between group means were done with Two-way factorial ANOVA, and Fisher protected least significant difference (PLSD) post hoc test was performed for all significant ANOVA (using Statistica version 13, Tibco Software, Palo Alto, CA, USA).

PDK1 = molecular target: T1, PDK1 (Homo sapiens, UniProt O15530); experiment: Kinase profile (33P ATP filter binding); assay type: biochemical; conditions: read-out: Remaining protein kinase activity
T1 sequence (O15530 1-556): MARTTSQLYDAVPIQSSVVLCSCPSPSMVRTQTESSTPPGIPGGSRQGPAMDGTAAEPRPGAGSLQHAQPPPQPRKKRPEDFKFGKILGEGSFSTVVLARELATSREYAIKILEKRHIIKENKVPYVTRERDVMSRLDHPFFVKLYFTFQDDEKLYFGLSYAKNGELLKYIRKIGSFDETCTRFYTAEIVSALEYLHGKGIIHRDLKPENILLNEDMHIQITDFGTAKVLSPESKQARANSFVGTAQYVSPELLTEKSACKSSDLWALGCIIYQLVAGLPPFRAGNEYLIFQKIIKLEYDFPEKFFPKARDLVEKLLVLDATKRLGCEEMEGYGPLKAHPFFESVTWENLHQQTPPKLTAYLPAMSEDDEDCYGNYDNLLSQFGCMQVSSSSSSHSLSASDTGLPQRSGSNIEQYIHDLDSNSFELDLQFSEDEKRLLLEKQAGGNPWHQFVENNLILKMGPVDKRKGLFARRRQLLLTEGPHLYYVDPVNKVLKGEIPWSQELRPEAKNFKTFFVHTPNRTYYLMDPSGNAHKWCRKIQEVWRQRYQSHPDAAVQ

PDGFRA = PDGFRA (Homo sapiens, UniProt P16234); experiment: Kinase profile (33P ATP filter binding); assay type: biochemical; conditions: read-out: Remaining protein kinase activity
Sequence of PDGFRA (P16234 24-1089): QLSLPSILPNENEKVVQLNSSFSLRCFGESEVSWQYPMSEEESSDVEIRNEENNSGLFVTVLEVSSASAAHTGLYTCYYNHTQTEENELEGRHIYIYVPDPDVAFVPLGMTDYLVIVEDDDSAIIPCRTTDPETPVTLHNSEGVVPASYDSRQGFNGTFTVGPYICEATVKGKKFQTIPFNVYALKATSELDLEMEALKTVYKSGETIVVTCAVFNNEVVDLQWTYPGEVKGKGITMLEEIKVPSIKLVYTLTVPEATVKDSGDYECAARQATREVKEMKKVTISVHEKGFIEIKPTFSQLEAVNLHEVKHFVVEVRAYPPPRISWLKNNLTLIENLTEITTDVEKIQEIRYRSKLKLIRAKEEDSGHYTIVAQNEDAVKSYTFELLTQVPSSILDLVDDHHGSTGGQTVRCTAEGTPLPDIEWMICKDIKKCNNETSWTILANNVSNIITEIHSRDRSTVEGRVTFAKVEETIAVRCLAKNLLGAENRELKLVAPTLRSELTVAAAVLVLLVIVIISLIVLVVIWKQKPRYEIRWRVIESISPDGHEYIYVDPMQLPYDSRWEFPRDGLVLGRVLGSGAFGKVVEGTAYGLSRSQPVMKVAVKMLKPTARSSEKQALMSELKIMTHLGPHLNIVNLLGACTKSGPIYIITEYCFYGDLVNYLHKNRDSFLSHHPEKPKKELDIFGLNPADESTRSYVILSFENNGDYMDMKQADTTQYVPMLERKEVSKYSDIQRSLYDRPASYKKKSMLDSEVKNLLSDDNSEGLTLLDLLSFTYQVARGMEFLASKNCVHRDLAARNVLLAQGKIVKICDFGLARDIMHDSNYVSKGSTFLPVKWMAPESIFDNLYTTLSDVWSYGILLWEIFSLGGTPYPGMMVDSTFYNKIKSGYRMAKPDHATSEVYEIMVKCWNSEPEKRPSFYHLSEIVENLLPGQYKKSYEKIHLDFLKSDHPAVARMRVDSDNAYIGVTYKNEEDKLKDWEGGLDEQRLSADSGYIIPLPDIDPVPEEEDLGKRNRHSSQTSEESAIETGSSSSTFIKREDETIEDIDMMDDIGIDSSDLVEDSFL

ULK2 = molecular target: T2, ULK2 (Homo sapiens, UniProt Q8IYT8); experiment: Kinase profile (33P ATP filter binding); assay type: biochemical; conditions: read-out: Remaining protein kinase activity
T2 sequence (Q8IYT8 1-1036): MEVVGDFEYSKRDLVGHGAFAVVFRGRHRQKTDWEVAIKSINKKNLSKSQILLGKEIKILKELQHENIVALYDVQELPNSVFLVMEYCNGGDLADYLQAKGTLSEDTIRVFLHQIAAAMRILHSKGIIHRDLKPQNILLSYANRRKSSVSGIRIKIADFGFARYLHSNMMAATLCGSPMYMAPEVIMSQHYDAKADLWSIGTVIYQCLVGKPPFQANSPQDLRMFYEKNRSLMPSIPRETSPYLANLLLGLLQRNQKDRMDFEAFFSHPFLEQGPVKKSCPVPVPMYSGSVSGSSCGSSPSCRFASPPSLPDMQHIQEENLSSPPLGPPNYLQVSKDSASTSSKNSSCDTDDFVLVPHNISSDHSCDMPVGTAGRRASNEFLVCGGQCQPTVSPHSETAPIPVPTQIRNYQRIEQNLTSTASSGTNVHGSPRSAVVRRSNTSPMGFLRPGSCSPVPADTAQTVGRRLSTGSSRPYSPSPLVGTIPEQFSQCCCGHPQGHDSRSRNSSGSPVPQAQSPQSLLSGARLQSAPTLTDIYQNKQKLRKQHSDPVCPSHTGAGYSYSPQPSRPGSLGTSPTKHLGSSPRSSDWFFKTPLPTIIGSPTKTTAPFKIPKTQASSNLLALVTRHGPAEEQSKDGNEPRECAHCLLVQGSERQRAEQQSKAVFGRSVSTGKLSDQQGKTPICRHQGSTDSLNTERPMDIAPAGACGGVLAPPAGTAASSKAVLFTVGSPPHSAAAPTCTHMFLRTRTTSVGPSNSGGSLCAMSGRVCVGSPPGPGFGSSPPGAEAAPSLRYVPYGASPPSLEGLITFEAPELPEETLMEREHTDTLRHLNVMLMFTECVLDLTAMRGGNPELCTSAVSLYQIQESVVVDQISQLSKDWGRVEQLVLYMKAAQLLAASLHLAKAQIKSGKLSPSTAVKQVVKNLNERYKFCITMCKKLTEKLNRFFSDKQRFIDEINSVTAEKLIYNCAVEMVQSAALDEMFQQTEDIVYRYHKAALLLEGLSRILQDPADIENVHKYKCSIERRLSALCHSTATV

OSR1 = OSR1 (Homo sapiens, UniProt O95747); experiment: Kinase profile (33P ATP filter binding); assay type: biochemical; conditions: read-out: Remaining protein kinase activity
Sequence of OSR1 (O95747 whole entry): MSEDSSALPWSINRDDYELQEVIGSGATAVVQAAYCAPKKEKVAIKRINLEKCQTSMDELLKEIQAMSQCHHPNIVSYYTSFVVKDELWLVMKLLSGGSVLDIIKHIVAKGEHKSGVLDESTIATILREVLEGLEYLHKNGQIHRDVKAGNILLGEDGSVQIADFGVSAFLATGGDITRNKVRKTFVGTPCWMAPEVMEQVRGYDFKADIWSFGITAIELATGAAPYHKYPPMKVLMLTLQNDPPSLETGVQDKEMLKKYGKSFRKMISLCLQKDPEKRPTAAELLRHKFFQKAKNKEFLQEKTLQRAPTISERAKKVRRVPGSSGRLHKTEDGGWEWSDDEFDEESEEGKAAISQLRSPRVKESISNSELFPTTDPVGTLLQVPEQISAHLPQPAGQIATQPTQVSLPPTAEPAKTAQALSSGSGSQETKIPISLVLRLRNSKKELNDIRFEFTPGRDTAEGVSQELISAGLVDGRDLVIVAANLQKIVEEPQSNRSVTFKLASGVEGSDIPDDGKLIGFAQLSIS

MARK3 = MARK3 (Homo sapiens, UniProt P27448); experiment: Kinase profile (33P ATP filter binding); assay type: biochemical; conditions: read-out: Remaining protein kinase activity
Sequence of MARK3 (P27448 whole entry): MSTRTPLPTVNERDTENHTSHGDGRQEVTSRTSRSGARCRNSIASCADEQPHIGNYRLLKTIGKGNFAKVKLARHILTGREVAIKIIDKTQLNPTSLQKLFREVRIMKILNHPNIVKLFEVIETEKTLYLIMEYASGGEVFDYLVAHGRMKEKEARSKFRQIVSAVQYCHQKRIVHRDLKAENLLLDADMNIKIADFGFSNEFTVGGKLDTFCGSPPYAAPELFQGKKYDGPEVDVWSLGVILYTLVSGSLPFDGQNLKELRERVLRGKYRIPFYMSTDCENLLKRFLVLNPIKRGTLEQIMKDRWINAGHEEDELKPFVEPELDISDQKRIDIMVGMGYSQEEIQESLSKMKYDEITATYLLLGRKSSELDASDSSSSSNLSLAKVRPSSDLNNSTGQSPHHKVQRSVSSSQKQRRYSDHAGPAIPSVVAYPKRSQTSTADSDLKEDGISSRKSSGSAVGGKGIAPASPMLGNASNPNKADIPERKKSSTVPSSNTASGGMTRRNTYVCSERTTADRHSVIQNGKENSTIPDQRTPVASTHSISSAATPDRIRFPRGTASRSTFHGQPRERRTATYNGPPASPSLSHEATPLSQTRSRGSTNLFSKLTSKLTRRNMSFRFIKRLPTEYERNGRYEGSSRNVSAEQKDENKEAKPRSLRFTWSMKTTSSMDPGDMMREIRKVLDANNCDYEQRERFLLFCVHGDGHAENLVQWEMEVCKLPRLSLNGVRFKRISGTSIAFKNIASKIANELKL

COc1ccc2sc(-c3cncc(NC(C)=O)c3)nc2c1 [PST-001, N-(5-(5-Methoxybenzo[d]thiazol-2-yl)pyridin-3-yl)acetamide]
continuous (steady state) concentration in the brain ([1]; 100 mg PST-001/kg powdered food): 1.25 µmol/g
steady state brain concentration ([1]; twice-a-day administration in the animal food of 10 mg/kg): 150 ng/mL
steady state plasma level ([1]; twice-a-day administration in the animal food of 10 mg/kg, 10 mg/kg): 76 ng/mL and 0.25 μM
remaining activity at 1 µM (PDK1): 110%
remaining activity at 100 µM (PDK1): 105%
remaining activity at 1 µM (PDGFRA): 100%
remaining activity at 100 µM (PDGFRA): 73%
remaining activity at 1 µM (ULK2): 111%
remaining activity at 100 µM (ULK2): 119%
remaining activity at 1 µM (OSR1): 120%
remaining activity at 100 µM (OSR1): 136%
remaining activity at 1 µM (MARK3): 99%
remaining activity at 100 µM (MARK3): 95%

COc1ccc2sc(-c3cncc(N)c3)nc2c1 [compound 1, 5-(5-Methoxybenzo[d]thiazol-2-yl)pyridin-3-amine]
remaining activity at 1 µM (PDK1; PDK1, 1 μM): 104%
remaining activity at 100 µM (PDK1; PDK1, 100 μM): 67%
remaining activity at 1 µM (PDGFRA; PDGFRA, 1 μM): 101%
remaining activity at 100 µM (PDGFRA; PDGFRA, 100 μM): 26%
remaining activity at 1 µM (ULK2; ULK2, 1 μM): 101%
remaining activity at 100 µM (ULK2; ULK2, 100 μM): 50%
remaining activity at 1 µM (OSR1; OSR1, 1 μM): 128%
remaining activity at 100 µM (OSR1; OSR1, 100 μM): 111%
remaining activity at 1 µM (MARK3; MARK3, 1 μM): 98%
remaining activity at 100 µM (MARK3; MARK3, 100 μM): 34%
